Earlier results, collected in patent US9624424B2, “Large stokes shift dyes” (LIFE TECHNOLOGIES CORPORATION, priority 2009, dated 2017).

Row | Compound | extinction coefficient around 605 nm (commercial dyes emitting at 750-800 nm)
1 | CCN1C(=CC=CC=CC=CC2=[N+](CCCCCC(=O)O)c3ccc(S(=O)(=O)O)cc3C2(C)C)C(C)(C)c2cc(S(=O)(=O)[O-])ccc21 [Cy7] | ~15,000 M^−1cm^−1
2 | CC(C)(C)c1cc(/C=C/C=C/C=C2/N(CCCS(=O)(=O)[O-])c3ccc(S(=O)(=O)[O-])cc3C2(C)CCCC(=O)O)c2ccc(=[N+](CCCS(=O)(=O)[O-])CCCS(=O)(=O)[O-])cc-2o1.[Na+].[Na+].[Na+] (stereo not shown) [Dy734] | ~15,000 M^−1cm^−1
3 | CCN1c2cc3c(cc2C(C)=CC1(C)C)C(=CC=CC=CC1=[N+](CCCCCC(=O)O)c2ccc(S(=O)(=O)[O-])cc2C1(C)C)C=C(C(C)(C)C)O3 [Dy750] | ~15,000 M^−1cm^−1
4 | AlexaFluor 750 [AF750] | ~15,000 M^−1cm^−1
